According to ChEMBL document CHEMBL1131327, “Selective Pneumocystis carinii dihydrofolate reductase inhibitors: design, synthesis, and biological evaluation of new 2,4-diamino-5-substituted-furo[2,3-d]pyrimidines” (J Med Chem, 1998):

Key:
[1] = target: T1, Dihydrofolate reductase (Pneumocystis carinii, UniProt P16184)
T1 sequence (P16184 whole entry): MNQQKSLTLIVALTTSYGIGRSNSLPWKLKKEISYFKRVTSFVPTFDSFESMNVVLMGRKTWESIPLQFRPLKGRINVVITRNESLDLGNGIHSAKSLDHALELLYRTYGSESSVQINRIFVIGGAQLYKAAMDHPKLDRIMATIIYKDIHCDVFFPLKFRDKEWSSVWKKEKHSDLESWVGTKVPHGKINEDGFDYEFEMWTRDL
Description: Inhibitory activity against dihydrofolate reductase from pneumocystis carinii

[2] = target: T2, Dihydrofolate reductase (Rattus norvegicus, UniProt Q920D2)
T2 sequence (Q920D2 whole entry): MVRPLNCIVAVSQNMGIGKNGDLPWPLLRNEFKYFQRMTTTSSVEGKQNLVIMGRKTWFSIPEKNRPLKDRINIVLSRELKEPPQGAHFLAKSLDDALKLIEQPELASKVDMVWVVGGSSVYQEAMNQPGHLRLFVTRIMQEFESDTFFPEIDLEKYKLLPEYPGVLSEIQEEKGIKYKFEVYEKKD
Description: Inhibitory activity against dihydrofolate reductase from rat liver

[3] = target: T3, Bifunctional dihydrofolate reductase-thymidylate synthase (Toxoplasma gondii, UniProt Q07422)
T3 sequence (Q07422 whole entry): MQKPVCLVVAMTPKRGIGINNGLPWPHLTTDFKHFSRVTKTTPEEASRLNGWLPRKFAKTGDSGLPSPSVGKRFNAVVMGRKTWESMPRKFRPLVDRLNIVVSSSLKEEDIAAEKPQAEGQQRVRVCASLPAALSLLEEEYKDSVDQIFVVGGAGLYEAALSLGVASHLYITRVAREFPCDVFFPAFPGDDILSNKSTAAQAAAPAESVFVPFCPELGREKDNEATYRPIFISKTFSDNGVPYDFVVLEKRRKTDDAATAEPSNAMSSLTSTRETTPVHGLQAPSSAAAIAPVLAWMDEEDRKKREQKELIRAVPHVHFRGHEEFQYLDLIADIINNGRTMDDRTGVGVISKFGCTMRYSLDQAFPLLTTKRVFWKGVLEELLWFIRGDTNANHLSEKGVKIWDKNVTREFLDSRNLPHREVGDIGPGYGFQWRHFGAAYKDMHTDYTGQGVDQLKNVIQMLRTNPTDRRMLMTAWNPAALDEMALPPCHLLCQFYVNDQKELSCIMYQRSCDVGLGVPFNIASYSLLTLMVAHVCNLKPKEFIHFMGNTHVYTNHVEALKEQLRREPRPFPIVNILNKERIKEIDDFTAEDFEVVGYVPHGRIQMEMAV
Description: Inhibitory activity against dihydrofolate reductase from Toxoplasma gondii

| IC50 [1] | IC50 [2] | Compound | IC50 [3] |
| --- | --- | --- | --- |
| 14.8 µM | 14.6 µM | CN(Cc1coc2nc(N)nc(N)c12)c1ccc2ccccc2c1 |  |
| > 27 µM | > 27 µM | COc1ccc(OC)c(N(C)Cc2coc3nc(N)nc(N)c23)c1 | > 27 µM |
| 44.8 µM | > 27 µM | CN(Cc1coc2nc(N)nc(N)c12)c1ccc(Cl)c(Cl)c1 | > 27 µM |
|  |  | Nc1nc(N)c2c(CNc3ccc(Oc4ccccc4)cc3)coc2n1 | 32.4 µM |
| > 12 µM | > 12 µM | Nc1nc(N)c2c(CNc3ccccc3Oc3ccccc3)coc2n1 | > 12 µM |
| > 31.3 µM | > 31.3 µM | COc1cccc(NCc2coc3nc(N)nc(N)c23)c1 | > 31.3 µM |
|  | 137 µM | Nc1nc(N)c2c(CNc3ccccc3-c3ccccc3)coc2n1 |  |
|  |  | Nc1nc(N)c2c(CNc3cc(Cl)ccc3Cl)coc2n1 | > 47 µM |
| 284 µM |  | CN(Cc1coc2nc(N)nc(N)c12)c1cc(Cl)c(Cl)c(Cl)c1 |  |

| Compound | IC50 [1] | IC50 [2] | IC50 [3] |
| --- | --- | --- | --- |
| Nc1nc(N)c2c(CSc3ccccc3)coc2n1 | > 26 µM |  | > 26 µM |
| Nc1nc(N)c2c(CNc3ccc4ccccc4c3)coc2n1 | 41 µM | 36.5 µM | 38 µM |
